The record followed here is PMC12027946, “Ionic and Non-Ionic Counterparts Based on Bis(Uracilyl)Alkane Moiety with Highest Selectivity Towards Acetylcholinesterase for Protection Against Organophosphate Poisoning and Treating Alzheimer’s Disease” (International Journal of Molecular Sciences, 2025).

In one data set the target is T1, brain AChE (Mus musculus, UniProt P21836).
T1 construct: Whole-brain homogenates were prepared in a Potter homogeniser; from tissue; host or cells: whole brain of CD-1 mice
T1 sequence (P21836 32-614): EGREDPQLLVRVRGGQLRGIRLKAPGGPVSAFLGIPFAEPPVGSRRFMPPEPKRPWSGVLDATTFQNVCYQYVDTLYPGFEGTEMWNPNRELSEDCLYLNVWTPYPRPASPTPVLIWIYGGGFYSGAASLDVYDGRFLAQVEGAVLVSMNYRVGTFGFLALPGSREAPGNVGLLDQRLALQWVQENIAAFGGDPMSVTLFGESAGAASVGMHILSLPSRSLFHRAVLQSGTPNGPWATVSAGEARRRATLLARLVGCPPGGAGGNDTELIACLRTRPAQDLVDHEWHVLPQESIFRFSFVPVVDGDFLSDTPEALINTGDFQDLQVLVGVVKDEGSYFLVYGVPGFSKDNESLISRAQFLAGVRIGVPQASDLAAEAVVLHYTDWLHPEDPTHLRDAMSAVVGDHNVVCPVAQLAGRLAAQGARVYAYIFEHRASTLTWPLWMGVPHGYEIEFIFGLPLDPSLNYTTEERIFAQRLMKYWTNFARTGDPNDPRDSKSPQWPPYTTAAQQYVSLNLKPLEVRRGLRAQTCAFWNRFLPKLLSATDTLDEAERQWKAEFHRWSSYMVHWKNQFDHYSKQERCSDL
Kind of data set: Brain AChE inhibition in vivo. Details: species or system mice. Conditions: ip. On the procedure: Bisuracil 3c was identified as the most promising for the inhibition of brain AChE in vivo. […].
For the brain AChE inhibition assay, the brains of mice were removed 30 min after i.p. injection of the tested compound (experimental group, n = 6 mice) or following i.p. vehicle injection (control group, n = 6 mice). The brains were subsequently frozen in liquid nitrogen. Whole-brain homogenates were prepared in a Potter homogeniser with 0.05 M Tris–HCl, 1% Triton X–100, 1M NaCl, and 2 mM ethylenediaminetetraacetic acid (pH 7.0; 4 °C; 1 part brain to 2 parts of buffer). The homogenate was centrifuged (14,000× g rpm; t = 4 °C) for 10 min using an Eppendorf 5430R centrifuge with an FA–45–30–11 rotor (Eppendorf AG, Hamburg, Germany). AChE activity in brain homogenates was measured using the method described by Dingova et al. with modification. […] The production of yellow 5–thio–2–nitro–benzoate anion resulting from the reduction of DTNB by thiocholine (the product of enzymatic hydrolysis of ATCH) was measured spectrophotometrically using a Shimadzu UV-1800 spectrophotometer (Shimadzu Co., Kyoto, Japan) according to Ellman’s method. The rate of thiocholine production over 20 min (from 10 to 30 min) was calculated. […] AChE activity was expressed in relation to the amount of total protein, which was determined by the Bradford method.

The next data set concerns mice. Kind of data set: Rotarod test. The data set is classed as in vivo. The settings on record: 3c 5 mg/kg i.p.; control 154 ± 20 s, p = 0.137. How it is done:
The ability of effective doses of bisuracil 2b (0.01 mg/kg) and bisuracil 3c (5 mg/kg) to induce incapacitation was evaluated. Locomotor activity, measured as the total distance travelled, and exploratory behaviour, assessed by the number of rearings (head inclinations) and head dips, were evaluated using the open-field test. Additionally, motor coordination was analysed using the rotarod test, where the ability of mice to stay on the rotating rod was recorded. The compounds were administered i.p. 30 min before testing, while the control group received an equivalent volume of the vehicle.
To analyse motor function, rotarod and open-field tests were carried out. Mice were randomly divided into 3 groups (n = 12): a control group of mice and groups of mice treated with tested compounds. Tests were conducted 1 h after compound exposure. To assess motor function, mice were first placed on a rotarod treadmill (Ugo Basile, Italy). Rotation speed was fixed at 15 rpm, and the time that each mouse remained on the rod was recorded as the score, with a maximum duration of 300 s per trial. Each mouse underwent 3 trials. […] To assess motor function, the distance travelled in centimetres in the arena was measured, using VideoMot2 software (Version 8.02 (131) 03-07-17 (TSE Systems, Bad Homburg, Germany).

A further data set concerns the target T2, human BuChE (Homo sapiens, UniProt P06276).
T2 construct: butyrylcholiesterase from human plasma; purchased Sigma-Aldrich; host or cells: human plasma
Kind of data set: Inhibition constants (Dixon and Cornish–Bowden plots), BuChE. The data set is classed as biochemical. On the procedure:
Experiments were performed using four different concentrations of ATCh as a substrate for AChE, and with BuTCh as a substrate for BuChE. According to the analysis of Dixon and Cornish–Bowden plots for bisuracil 2b, AChE and BuChE inhibition is of a mixed type characterised both by competitive inhibition (Kci) and uncompetitive inhibition (Kui) components. For AChE, Kci was determined to be 55.7 ± 8.1 pM while Kui = 156 ± 18 pM (Figure 3A,B), and Kci = 0.13 ± 0.02 mM while Kui = 0.7 ± 0.06 mM for BuChE (Figure 3C,D). Inhibition of AChE and BuChE by bisuracil 3c was of a mixed type. For the AChE constant, Kci was 0.7 ± 0.04 nM while Kui 4.45 ± 1.76 nM (Figure 4A,B); for the BuChE constant, Kci = 0.04 ± 0.007 мM while Kui = 0.68 ± 0.08 мM (Figure 4C,D).
A UV-1800 Shimadzu (Shimadzu Co., Kyoto, Japan) spectrophotometer was utilised to conduct the measurements. The final enzyme concentration in the assays was in the picomolar range. In order to ascertain the levels of spontaneous hydrolysis of the enzyme and substrate in the absence of an inhibitor, controls were performed for each substrate concentration. The change in absorption was then recorded over a period of three minutes. The inhibition constants were determined from a Dixon plot and Cornish–Bowden transformation.

Molecules are shown by their SMILES.

T2 sequence (P06276 29-602): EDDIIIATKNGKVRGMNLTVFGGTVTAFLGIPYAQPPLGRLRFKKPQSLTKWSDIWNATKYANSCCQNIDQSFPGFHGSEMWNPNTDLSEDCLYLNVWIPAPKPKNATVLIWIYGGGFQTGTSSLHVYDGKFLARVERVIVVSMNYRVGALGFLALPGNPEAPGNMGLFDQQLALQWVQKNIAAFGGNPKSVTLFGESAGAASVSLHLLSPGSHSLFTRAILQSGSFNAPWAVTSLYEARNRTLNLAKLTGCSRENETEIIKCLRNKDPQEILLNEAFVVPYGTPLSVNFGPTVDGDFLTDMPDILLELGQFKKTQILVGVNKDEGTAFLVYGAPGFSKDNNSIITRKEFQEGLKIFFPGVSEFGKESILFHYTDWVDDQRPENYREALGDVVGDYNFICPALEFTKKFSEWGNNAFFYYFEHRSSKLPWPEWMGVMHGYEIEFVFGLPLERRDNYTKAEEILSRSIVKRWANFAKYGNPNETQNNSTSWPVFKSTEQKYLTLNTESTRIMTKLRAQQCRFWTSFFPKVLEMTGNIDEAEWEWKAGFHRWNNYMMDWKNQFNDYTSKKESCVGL

At brain AChE, `CCN(CCCCCn1c(=O)ccn(CCCCCn2c(C)cc(=O)n(C)c2=O)c1=O)Cc1ccccc1C#N` [3c] returned an inhibition at 5 mg/kg of 14.9 ± 3.8% and an inhibition at 10 mg/kg of 54.2 ± 6.6%. For the same compound, the “mean fall time (rotarod)” value in the data set on mice came to 170 ± 19 s. Further, the “Kui (uncompetitive inhibition constant), BuChE” value at human BuChE (BuTCh as substrate) is given as 0.68 ± 0.08 мM. For the same compound, the Ki on human BuChE (BuTCh as substrate, read-out: Kci (competitive inhibition constant), BuChE) turned out to be 40 ± 7 µM. Further, on human BuChE (Dixon and Cornish–Bowden plots), the “type of BuChE inhibition” value is on record as “mixed type”.
